Assay results taken from patent publication US20130203668A1, “PHARMACEUTICAL COMPOSITION COMPRISING ANTIPLATELET AGENTS AND AN ERYTHROPOIESIS STIMULATING AGENT” (CADILA HEALTHCARE LIMITED, priority 2010, published 2013).

How the values were obtained:
[1] = system: platelet rich plasma (PRP); assay: Effect of clopidogrel and aspirin on rHuEPO-induced platelet reactivity, ex vivo platelet aggregation; type: in vivo, male Wistar rats; conditions: for Effect on platelet aggregatory response in rHuEPO treated rats (in words): rHuEPO (25 μg/kg, S.C.) treated rats, clopidogrel 2.5 mg/kg p.o., aspirin 75 mg/kg p.o.; for % platelet aggregation: rHuEPO 25 μg/kg s.c., Clopidogrel 2.5 mg/kg p.o., Aspirin 75 mg/kg p.o.
Experimental: (§1) Six to eight week old male Wistar rats used and the methods and procedures described here have been reviewed and approved by the Institutional Animal Ethics Committee (IAEC). Wistar male rats were divided in groups [each group containing 6 animals (n=6)]. Control animal received vehicle only (0.9% w/v NaCl normal saline), treatment groups received three consecutive doses of Recombinant Human Erythropoietin (25 and 50 μg/kg, s.c.) at an interval of 24 hour. Blood collection was performed at 48 hour after the last injection of Erythropoietin in citrated tubes. Platelet rich plasma (PRP) was separated. Determination of ex-vivo platelet aggregation was performed by using 1) ADP as aggregation inducing agent 2) Arachidonic acid as aggregation inducing agent 3) Thrombin as aggregation inducing agent and 4) Collagen as aggregation inducing agent. Platelet aggregation was performed by turbidometric method using high through put 96-well plate. Optical density was measured at 405 nm by Spectra Max plate reader. […] Increase in platelet aggregatory response meaning increase in platelet reactivity when same concentration of aggregating agent is used.
Six to eight week old male Wistar rats were divided in groups [each group containing 6 animals (n=6)]. Control animal received vehicle only (0.9% w/v NaCl normal saline), treatment groups received three consecutive doses of Recombinant Human Erythropoietin (25 μg/kg, s.c.) at an interval of 24 hour. Aspirin (75 mg/kg p.o.), and Clopidogrel (2.5 mg/kg, p.o.) were dosed individually and in combination with each other to respective groups at 48 hour after the last injection of erythropoietin. Blood collection was performed after 2 hours of antiplatelet treatment. Platelet rich plasma (PRP) was separated. Determination of ex-vivo platelet aggregation was performed by using 1) ADP as aggregation inducing agent 2) Arachidonic acid as aggregation inducing agent 3) Thrombin as aggregation inducing agent and 4) Collagen as aggregation inducing agent.

[2] = Hematological parameters in 5/6 nephrectomized rats (chronic kidney disease model); type: in vivo, male Wistar rats; conditions: i.v. 3 times a week for 4 weeks; for Hematocrit (%) Average / Hemoglobin (g/dL) Average / RBC count (10^6/μL) Average: 5/6 nephrectomized rats, EPO 500 IU/kg, Clopi 10 mg/kg
From the text: (§2) Six to eight week old male Wistar rats used and the methods and procedures described here have been reviewed and approved by the Institutional Animal Ethics Committee (IAEC). We used human therapeutic dose of rHuEPO in rats and same frequency of administration as in humans (Kirkeby A et al., Thromb Haemost, 2008; 99:720-728). A 5/6 nephrectomy has been performed on male wistar rats (Toba H et al., European Journal of Pharmacology 656, 2011, 81-87) and treatment has been started after one month of nephrectomy.
(§3) The rats were divided into 5 groups (n=6): 1) a control group, which received a sham operation (SHAM control); 2) a 5/6 nephrectomized group (NPX), removed the upper and lower poles of the left kidney and after one week the entire right kidney under anesthesia (NPX vehicle); 3) a 5/6 nephrectomy+rHuEPO group, nephrectomized and injected with rHuEPO at 500 IU/kg 3 times a week intravenously (i.v.) for 4 weeks (NPX+EPO); 4) a 5/6 nephrectomized+rHuEPO+clopidogrel group, nephrectomized and administered with rHuEPO (500 IU/kg)+clopidogrel (10 mg/kg) every 3 times a week intravenously (i.v.) for 4 weeks. 5) a 5/6 nephrectomized+clopidogrel group, nephrectomized and administered with rHuEPO (500 IU/kg)+clopidogrel (10 mg/kg) every 3 times a week intravenously (i.v.) for 4 weeks.
(§4) After 4 weeks of treatment, blood samples were collected via retro-orbital route in tubes containing 3.8% tri-sodium citrate for the collection of platelet rich plasma (PRP) for ADP-induced platelet aggregation studies. Blood samples were also collected for hematological analysis in tubes containing 5% EDTA. Serum samples were used for measurement of various kidney biomarkers such as creatinine, urea, uric acid, blood urea nitrogen and total protein.

[3] = system: platelet rich plasma (PRP); assay: Ex vivo ADP-induced platelet aggregation in 5/6 nephrectomized rats (chronic kidney disease model); design: species or system male Wistar rats; conditions: i.v. 3 times a week for 4 weeks; for Platelet aggregation (%) Average: 2.5 μM ADP, 5/6 nephrectomized rats, EPO 500 IU/kg, Clopi 10 mg/kg
From the text: as §2, §3, §4
Increase in platelet aggregatory response meaning increase in platelet reactivity when same concentration of aggregating agent is used.

[4] = system: platelet rich plasma (PRP); assay: Effect of rHuEPO on platelet reactivity, ex vivo platelet aggregation (ADP, arachidonic acid, thrombin, collagen); type: in vivo, male Wistar rats; conditions: for % platelet aggregation: s.c. treated rats
Experimental: as §1

[5] = Kidney biomarkers in serum of 5/6 nephrectomized rats (chronic kidney disease model); type: in vivo, male Wistar rats; conditions: i.v. 3 times a week for 4 weeks
From the text: as §2, §3, §4
There was increase in the serum creatinine, serum urea, serum uric acid, blood urea nitrogen and decrease in serum total protein in nephrectomized animals. […] There was improvement in the kidney function when combination of rHuEPO and antiplatelet agent has been given every 3 times a week intravenously (i.v.) for 4 weeks in nephrectomized rats (FIGS. 6a, 6b, 6c, 6d and 6e).

[6] = Bleeding time, tail transaction test; type: in vivo, male Wistar rats; conditions: rHuEPO 25 μg/kg s.c., Clopidogrel 2.5 mpk, Aspirin 75 mpk; Wistar rats
Experimental: Six to eight week old male Wistar rats were divided in groups [each group containing 6 animals (n=6)]. Control animal received vehicle only (0.9% w/v NaCl normal saline), treatment groups received three consecutive doses of Recombinant Human Erythropoietin (25 μg/kg, S.C.) at an interval of 24 hour. Aspirin (75 mg/kg p.o.), and Clopidogrel (2.5 mg/kg, p.o.) individually and in combination with each other were dosed to respective groups at 48 hour after the last injection of Erythropoietin. Bleeding time experiment using tail transaction test was performed.

[7] = 5/6 nephrectomized rats, EPO 500 IU/kg, Clopi 10 mg/kg

For CC(=O)Oc1ccccc1C(=O)O [Aspirin, reference compound], the “Effect on platelet aggregatory response in rHuEPO treated rats (in words)” value [1] was “further normalizes the hyper reactive platelets”.

With COC(=O)[C@H](c1ccccc1Cl)N1CCc2sccc2C1 [Clopidogrel, reference compound] the “Hematocrit (%) Average” value [2] was 46.07%, the “Hemoglobin (g/dL) Average” value [2] was 14.77 g/dL and the “RBC count (10^6/μL) Average” value [2] was 8.52 10^6/μL. For the same molecule, the “Effect on platelet aggregatory response in rHuEPO treated rats (in words)” value [1] was “platelet aggregatory response is normalized” and the “Platelet aggregation (%) Average” value [3] was −2%.

In the case of “Recombinant Human Erythropoietin [rHuEPO]”, the “Hematocrit (%) Average” value [2] is reported as 62.3%, the “Hemoglobin (g/dL) Average” value [2] is reported as 20.4 g/dL and the “RBC count (10^6/μL) Average” value [2] is reported as 11.13 10^6/μL. The “Effect on hematological parameters (in words)” value ([2]; nephrectomized rats) was “increase in RBC count, hemoglobin and hematocrit”, the “% platelet aggregation” value ([4]; ADP (1.25 μM), rHuEPO 25 μg/kg, 3 doses, blood 48 h after last dose) was 59.1 ± 3.2% and the “% platelet aggregation” value ([4]; ADP (1.25 μM), rHuEPO 50 μg/kg, 3 doses, blood 48 h after last dose) was 66.4 ± 4.5%. For the same molecule, the “% platelet aggregation” value ([4]; Arachidonic acid (150 μM), rHuEPO 25 μg/kg) was 50.6 ± 3.1%, the “% platelet aggregation” value ([4]; Arachidonic acid (150 μM), rHuEPO 50 μg/kg) was 61.3 ± 3.4% and the “% platelet aggregation” value ([4]; Collagen (0.25 μg/ml), rHuEPO 25 μg/kg) was 30.5 ± 2.0%. For the same molecule, the “% platelet aggregation” value ([4]; Collagen (0.25 μg/ml), rHuEPO 50 μg/kg) was 45.9 ± 3.2%, the “% platelet aggregation” value ([4]; Collagen (0.5 μg/ml), rHuEPO 25 μg/kg) was 56.9 ± 1.7% and the “% platelet aggregation” value ([4]; Collagen (0.5 μg/ml), rHuEPO 50 μg/kg) was 65.9 ± 1.7%. For the same molecule, the “% platelet aggregation” value ([4]; Thrombin (0.0125 IU/ml), rHuEPO 25 μg/kg) was 37.7 ± 3.0%, the “% platelet aggregation” value ([4]; Thrombin (0.0125 IU/ml), rHuEPO 50 μg/kg) was 59.5 ± 4.4% and the “Effect on platelet aggregation (in words)” value ([4]; rHuEPO 25 and 50 μg/kg, s.c., constant concentration of aggregating agents) was “causes increase in platelet aggregation”. The “% platelet aggregation” value ([1]; ADP (1.25 μM), blood 2 h after antiplatelet treatment) was 59.5 ± 1.4%, the “% platelet aggregation” value ([1]; Arachidonic acid (150 μM)) was 44.4 ± 2.5% and the “% platelet aggregation” value ([1]; Collagen (0.25 μg/ml)) was 60.03 ± 1.9%. The “% platelet aggregation” value ([1]; Thrombin (0.025 IU/ml)) was 70.8 ± 1.0%, the “Blood urea nitrogen mg/dL Average” value [5, 7] was 64.33 mg/dL and the “Serum creatinine mg/dL Average” value [5, 7] was 0.74 mg/dL. The “Serum urea mg/dL Average” value [5, 7] was 134.33 mg/dL, the “Serum uric acid mg/dL Average” value [5, 7] was 1.4 mg/dL and the “Total protein g/dL Average” value [5, 7] was 6.13 g/dL. The “Effect on kidney function / kidney biomarkers (in words)” value ([5]; nephrectomized rats) was “further increase in the serum creatinine, serum urea, serum uric acid, blood urea nitrogen”, the “Bleeding Time” value [6] was 165 ± 28.1 s and the “Platelet aggregation (%) Average” value [3] was 55%. For the same molecule, the “Effect on platelet aggregatory response in nephrectomized rats (in words)” value ([3]; ADP, rHuEPO 500 IU/kg, clopidogrel 10 mg/kg) was “platelet aggregation increases”.
